Experimental data reported in patent US20260294922A1, “Inhibitors of JUN N-Terminal Kinases (JNK1, JNK2, and/or JNK3) and Mitogen-Activated Protein Kinases (MAPK8, MAPK9, and/or MAPK10) and Methods of Using Same” (Baylor College of Medicine, priority 2023, published 2026).
“Also recorded” adds a separate entry of the source.

Columns and labels:
[1] = molecular target: T1, JNK1 (Homo sapiens, UniProt P45983); assay: JNK1 kinase (intrinsic ATPase, Kinase-Glo) assay; type: biochemical; conditions: Table 3b; read-out: Ki(app) JNK1
T1 sequence (P45983 whole entry): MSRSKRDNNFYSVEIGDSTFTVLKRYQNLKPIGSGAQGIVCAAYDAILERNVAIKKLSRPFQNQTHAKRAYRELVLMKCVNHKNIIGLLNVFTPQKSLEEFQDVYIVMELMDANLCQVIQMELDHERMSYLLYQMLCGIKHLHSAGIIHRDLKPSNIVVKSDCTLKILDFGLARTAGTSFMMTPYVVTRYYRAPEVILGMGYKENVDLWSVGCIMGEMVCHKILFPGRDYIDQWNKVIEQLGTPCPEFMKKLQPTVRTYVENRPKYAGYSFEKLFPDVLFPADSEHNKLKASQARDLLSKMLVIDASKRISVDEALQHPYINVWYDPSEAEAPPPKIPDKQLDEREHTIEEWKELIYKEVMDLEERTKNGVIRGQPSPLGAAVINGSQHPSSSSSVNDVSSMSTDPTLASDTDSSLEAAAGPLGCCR
How it was run: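 Full-length construct not stated; kinases hydrolyse ATP without peptide substrate, reaction run 30 or 60 min at 30° C, remaining ATP read by Kinase-Glo luminescence with no-kinase controls. Apparent Ki from normalized fractional activities fitted to modified Morrison tight-binding equation; orthogonal LanthaScreen binding assay gave IC50.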

[2] = molecular target: JNK2 (Homo sapiens, UniProt P45984); assay: JNK2 kinase (intrinsic ATPase, Kinase-Glo) assay; type: biochemical; conditions: Table 3b; read-out: Ki(app) JNK2
Sequence of JNK2 (P45984 whole entry): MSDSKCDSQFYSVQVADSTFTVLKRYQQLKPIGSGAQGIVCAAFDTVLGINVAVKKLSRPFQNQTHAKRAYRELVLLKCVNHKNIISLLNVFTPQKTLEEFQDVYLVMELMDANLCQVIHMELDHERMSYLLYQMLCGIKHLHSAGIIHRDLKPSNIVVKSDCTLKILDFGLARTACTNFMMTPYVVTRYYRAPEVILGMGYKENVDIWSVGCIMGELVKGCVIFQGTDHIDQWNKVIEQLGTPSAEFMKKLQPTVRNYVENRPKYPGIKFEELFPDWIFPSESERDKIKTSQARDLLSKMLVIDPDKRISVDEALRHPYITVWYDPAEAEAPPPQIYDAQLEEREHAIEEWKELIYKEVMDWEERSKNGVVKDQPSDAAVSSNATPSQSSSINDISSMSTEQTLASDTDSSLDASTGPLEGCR

[3] = molecular target: JNK3 (Homo sapiens, UniProt P53779); assay: JNK3 kinase (intrinsic ATPase, Kinase-Glo) assay; type: biochemical; conditions: Table 3b; read-out: Ki(app) JNK3
Sequence of JNK3 (P53779 whole entry): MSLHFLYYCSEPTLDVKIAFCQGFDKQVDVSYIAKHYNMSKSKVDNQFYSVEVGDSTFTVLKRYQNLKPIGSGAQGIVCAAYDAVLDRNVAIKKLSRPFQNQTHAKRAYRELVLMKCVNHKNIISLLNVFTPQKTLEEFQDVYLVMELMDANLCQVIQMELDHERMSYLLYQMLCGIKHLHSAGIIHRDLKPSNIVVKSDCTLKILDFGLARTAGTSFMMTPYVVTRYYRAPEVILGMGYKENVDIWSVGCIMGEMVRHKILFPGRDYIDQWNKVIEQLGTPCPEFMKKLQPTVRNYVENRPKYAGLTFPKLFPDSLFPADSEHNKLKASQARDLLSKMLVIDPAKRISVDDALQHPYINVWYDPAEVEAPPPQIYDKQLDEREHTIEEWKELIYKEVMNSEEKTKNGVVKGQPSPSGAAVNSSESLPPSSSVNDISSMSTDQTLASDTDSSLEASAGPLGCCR

[4] = molecular target: T2, JNK1 (MAPK8) (Homo sapiens, UniProt P45983); assay: Eurofins KdSelect, JNK1 (MAPK8); type: binding; conditions: Table 2; IC50 nM; read-out: JNK1 (MAPK8), based on Kd select results
T2 construct: purchased Eurofins (KdSelect service)
T2 sequence (P45983 whole entry): as the sequence (P45983 whole entry) above

[5] = molecular target: T3, JNK2 (MAPK9) (Homo sapiens, UniProt P45984); assay: Eurofins KdSelect, JNK2 (MAPK9); type: binding; conditions: Table 2; IC50 nM; read-out: JNK2 (MAPK9), based on Kd select results
T3 construct: purchased Eurofins (KdSelect service)
T3 sequence (P45984 whole entry): as the sequence (P45984 whole entry) above

[6] = molecular target: T4, JNK3 (MAPK10) (Homo sapiens, UniProt P53779); assay: Eurofins KdSelect, JNK3 (MAPK10); type: binding; conditions: Table 2; IC50 nM; read-out: JNK3 (MAPK10), based on Kd select results
T4 construct: purchased Eurofins (KdSelect service)
T4 sequence (P53779 whole entry): as the sequence (P53779 whole entry) above

[7] = molecular target: Other MAPK; assay: Eurofins KdSelect, other MAPK; type: binding; conditions: Table 2; IC50 nM; read-out: Other MAPK, based on Kd select results
Source text: The next step was to confirm that the compounds that bound to JNK1, JNK2 or JNK3 in a competitive manner, relative to bentamapimod, were inhibitors of the ATP-dependent kinase activity in assays. In many cases, the results have been replicated at ThermoFisher using their SelectScreen technology platform. Based on knowledge about JNK inhibitors, and the results of DEC-Tec selections, a target compound profile was developed (Table 2).
The efficacy and selectivity of BEND and TANZ were used to define a realistic preliminary target compound profile (Table 2) for the next generation of JNK1-3 inhibitors for the treatment of endometriosis.

[8] = molecular target: T1, JNK1; assay: Promega NanoBRET intracellular target engagement (tracer K10 displacement), JNK1; type: cell-based; conditions: cyano group
[9] = test system: 480 kinases; assay: Eurofins KINOMEscan selectivity profile; type: binding; conditions: Bentamapimod and Tanzisertib at 1 μM; listed as BEND
[10] = molecular target: T5, MEK4 (Homo sapiens, UniProt P45985); assay: KINOMEscan, MEK4; type: binding
T5 construct: purchased ThermoFisher (SelectScreen)
T5 sequence (P45985 1-399): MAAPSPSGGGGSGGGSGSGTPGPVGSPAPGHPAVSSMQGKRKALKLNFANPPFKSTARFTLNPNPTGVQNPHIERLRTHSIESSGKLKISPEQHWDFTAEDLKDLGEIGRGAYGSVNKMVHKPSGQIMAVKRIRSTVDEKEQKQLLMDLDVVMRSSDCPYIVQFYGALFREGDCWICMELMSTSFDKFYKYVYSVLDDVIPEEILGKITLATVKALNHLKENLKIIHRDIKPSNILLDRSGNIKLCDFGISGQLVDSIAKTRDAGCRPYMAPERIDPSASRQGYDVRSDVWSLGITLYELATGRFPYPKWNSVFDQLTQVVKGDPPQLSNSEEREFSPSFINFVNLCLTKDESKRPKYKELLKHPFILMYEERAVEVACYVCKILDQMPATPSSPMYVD

[11] = test system: 12Z endometriotic epithelial cells; assay: IL-1β-stimulated pro-inflammatory gene expression (qPCR) in 12Z cells; type: cell-based, human; conditions: relative to bentamapimod
Source text: These studies indicate that NanoBRET assays are an innovative technical platform to measure target engagement of CDD JNK inhibitors with the target JNK1, JNK2 or JNK3. As further evidence that JNK inhibitors address disease-relevant endpoints, biological responses of JNK inhibitors are provided herein, as measured in target tissue cellular models. 12Z immortalized endometriotic epithelial cells and patient-derived endometriotic stromal cells have been cultured with reference compound bentamapimod, CDD-2628, and CDD-2728. To exemplify the effects of CDD-2628 and CDD-2728 in the endometrial cell cultures, gene expression was measured using qPCR (expressed as fold-change relative to GAPDH, a housekeeping gene that is not affected by culture treatment effects) that reflect synthesis of inflammatory lipids (PTGS2), transformation of cells to a more migration and invasive potential (MMP-3) and chemoattractant cytokines to recruit pro-inflammatory immune cells (IL-6, IL-8).
In the culture systems employed in FIGS. 12A-12J, FIGS. 13A-13B, FIGS. 14A-14H, FIGS. 15A-15H, and FIGS. 16A-16F, the treatment of cells with IL-1β is used to mimic the peritoneal environment where IL-1β is most frequently measured at higher concentrations in patients with endometriosis (0.1 ng/mL-1 ng/mL) than in unaffected women (<0.01 ng/mL). The use of IL-1β to mimic the pro-inflammatory environment is a common method in cellular assays for endometriosis research. Although the concentrations of IL-1β in these cell cultures are higher than measured in peritoneal fluid, there are multiple other pro-inflammatory cytokines in peritoneal fluid that contribute to the pro-inflammatory environment.
Specifically, 12Z cells were plated at a density of 1×10^5 cells/well in a 12-well tissue culture plate, serum-starved overnight (17-18 h), pre-treated with vehicle (DMSO) or JNK inhibitor for 30 minutes, then stimulated with 10 ng/ml IL-1β in the presence or absence of the JNK inhibitors for 6 hours. After the 6-hour treatment, mRNA was extracted from the cells using the Qiagen RNEasy mini isolation kit and […] of mRNA was reverse transcribed into cDNA using the qScript cDNA Supermix (Quanta Biosciences). cDNA was amplified using SYBR Green Master Mix (Applied Biosystems) with quantitative Real Time PCR (BioRad CFX) using pre-designed and validated primers specific for genes encoding IL6, IL8, PTGS2/COX2, and MMP3 (BioRad). Relative quantification of these specific genes was calculated by the ΔΔCt method, normalizing their abundance relative to the internal housekeeping gene, GAPDH, followed by quantification relative to the vehicle-treated cells. Statistical analyses and visualizations were performed using a One Way ANOVA with a Tukey's multiple comparison post-hoc test on GraphPad Prism version 9.

[12] = Phase 1 volunteers / IPF; cited from earlier work

## N#CC(c1ccnc(OCc2ccc(CN3CCOCC3)cc2)n1)c1nc2ccccc2s1 (centres unmarked) [CDD-939, bentamapimod]
[1]
  Ki: 0.22 µM
[2]
  Ki: 0.64 µM
[3]
  Ki: 0.039 µM
[4]
  Kd: 270 nM
[5]
  Kd: 170 nM
[6]
  Kd: 130 nM
[7]
  Kd: > 1000 nM
[8]
  interference with NanoBRET readout: interferes with the assay readout
[9]
  KINOMEscan selectivity / inhibition: JNK1-3 (CMGC family), were inhibited; also recorded: highly selective
[10]
  MEK4 inhibition in KINOMEscan: does not inhibit MEK4
[11]
  PTGS2 expression: concentration-dependent decreases
[11]; listed as Bentamapimod
  IL-6 expression: concentration-dependent decreases
[11]; listed as bentamapimod
  IL-6 expression: equally effective
[12]
  clinical safety: deemed safe
